The values below are quoted from earlier work in patent US12532880B2, “Cryopreservation of cell monolayers” (priority 2018, dated 2026).

In series [1] the test system is porcine corneal endothelium. The conditions noted are these: endothelium cryopreserved in the presence of 2% CS.
Series [2] relates to intact human articular cartilage. Particulars: chondroitin sulfate added to the vitrification solution.

In the case of chondroitin sulfate [CS], in series [1], the “Loss of viability in post-thaw culture” value is listed as 33%. Also, in series [2], the Cell recovery is reported as 75.4%.
